Assay results from the Deep4Chem optical property database.
Blank lines part the entries; values can stand above or below the molecule they belong to.

Experiment: photoluminescence quantum yield (fraction); solvent given as SMILES

- photoluminescence quantum yield (in C1CCOC1): 0.31
- photoluminescence quantum yield (in CO): 0.24
Compound: CCOC(=O)C1=CN(Cc2ccccc2)C=C(C(=O)OCC)C1

- photoluminescence quantum yield (in C1COCCO1): 0.083
Compound: O=C1OC(c2ccccc2)=C/C1=C\c1ccc([N+](=O)[O-])cc1

- photoluminescence quantum yield (in ClCCl): 0.75
Compound: CCOC(=O)COc1ccc(/C=C/C2=[N+]3C(=Cc4c5ccccc5c(-c5[nH]c(C)cc5C)n4[B-]3(F)F)C(C)=C2)cc1

- photoluminescence quantum yield (in C1CCOC1): 0.035
- photoluminescence quantum yield (in C1COCCO1): 0.0009
- photoluminescence quantum yield (in CC#N): 0.0005
- photoluminescence quantum yield (in CC(C)O): 0.001
- photoluminescence quantum yield (in CCCCO): 0.003
- photoluminescence quantum yield (in CCCO): 0.001
- photoluminescence quantum yield (in CCOC(C)=O): 0.002
- photoluminescence quantum yield (in CN(C)C=O): 0.001
- photoluminescence quantum yield (in CO): 0.003
- photoluminescence quantum yield (in CS(C)=O): 0.003
- photoluminescence quantum yield (in ClC(Cl)Cl): 0.002
- photoluminescence quantum yield (in O): 0.001
Compound: N#Cc1coc2ccccc2c1=O

- photoluminescence quantum yield (in CCO): 0.4
Compound: CCOC(=O)c1cc(C(=O)OCC)c2cc(N)ccc2n1

- photoluminescence quantum yield (in CCO): 0.55
Compound: COC(=O)CNC(=O)CCNc1cccc2ccccc12

- photoluminescence quantum yield (in CO): 0.53
Compound: c1ccc(N(c2ccccc2)c2ccc(-c3cncs3)cc2)cc1

- photoluminescence quantum yield (in ClCCl): 0.16
Compound: Cn1cc(-c2nc3ccccc3nc2C#Cc2ccccc2)c2ccccc21

- photoluminescence quantum yield (in ClCCl): 0.03
Compound: OB1c2ccccc2Nc2ccccc21

- photoluminescence quantum yield (in ClCCl): 0.18
Compound: CCOC(=O)c1sc(-c2ccc(-c3cc(-c4cccs4)c(C(=O)OCC)s3)s2)cc1-c1cccs1

The next lines start with the molecule.

Compound: c1ccc(-c2nc(-c3ccc(N4c5ccccc5Oc5ccccc54)cc3)nn2-c2ccc(N3c4ccccc4Oc4ccccc43)cc2)nc1
- photoluminescence quantum yield (in ClCCl): 0.11

Compound: CN(C)c1ccc2c(c1)Cc1ccccc1-2
- photoluminescence quantum yield (in C1CCOC1): 0.39
- photoluminescence quantum yield (in C1COCCO1): 0.38
- photoluminescence quantum yield (in CC(=O)N(C)C): 0.4
- photoluminescence quantum yield (in CCCCCC): 0.25
- photoluminescence quantum yield (in CCCCCCO): 0.22
- photoluminescence quantum yield (in CCCCCO): 0.19
- photoluminescence quantum yield (in CCCCO): 0.19
- photoluminescence quantum yield (in CCCO): 0.21
- photoluminescence quantum yield (in CCO): 0.2
- photoluminescence quantum yield (in CCOC(C)=O): 0.4
- photoluminescence quantum yield (in CCOCC): 0.31
- photoluminescence quantum yield (in CO): 0.2
- photoluminescence quantum yield (in CS(C)=O): 0.42
- photoluminescence quantum yield (in O): 0.12
- photoluminescence quantum yield (in OC1CCCCC1): 0.22

Compound: COc1ccc(C2=[N+]3C(=Nc4c5c6cc(OC)c(OC)c(OC)c6c6cc(C(C)(C)C)ccc6c5c(-c5ccc(OC)cc5)n4[B-]3(F)F)c3c2c2ccc(C(C)(C)C)cc2c2c(OC)c(OC)c(OC)cc32)cc1
- photoluminescence quantum yield (in Cc1ccccc1): 0.35

Compound: COc1ccc2c(c1)SCC1=C(c3ccccc3)C3=Nc4c(-c5ccccc5)c5c(n4[B-](F)(F)[N+]3=C12)-c1ccc(OC)cc1SC5
- photoluminescence quantum yield (in ClC(Cl)Cl): 0.11

Compound: N#Cc1c(-n2c3ccccc3c3ccccc32)c(F)c(-n2c3ccccc3c3ccccc32)c(-n2c3ccccc3c3ccccc32)c1-n1c2ccccc2c2ccccc21
- photoluminescence quantum yield (in Cc1ccccc1): 0.81
- photoluminescence quantum yield (in c1ccc([Si](c2ccccc2)(c2ccc(-n3c4ccccc4c4ccccc43)cc2)c2ccc(-n3c4ccccc4c4ccccc43)cc2)cc1): 1

Compound: F[B-]1(F)OC(c2ccccc2)=CC(c2ccccc2)=[O+]1
- photoluminescence quantum yield (in CC#N): 0.8
- photoluminescence quantum yield (in ClC(Cl)(Cl)Cl): 0.15

Compound: Cc1ccc(/C=C/c2nc(-c3cccc([N+](=O)[O-])c3)[nH]c2/C=C/c2ccc(C)cc2)cc1
- photoluminescence quantum yield (in ClCCl): 0

Compound: N#CC(C#N)=Cc1ccc2c(c1)c1cc(C=C(C#N)C#N)ccc1n2-c1cccc2ccccc12
- photoluminescence quantum yield (in ClCCl): 0.07

Compound: CCCCCN(c1ccccc1)c1ccc2c(c1)C(CC)(CC)c1cc(/C=C/c3ccc(/C=C(\C#N)C(=O)O)s3)ccc1-2
- photoluminescence quantum yield (in C1CCOC1): 0.405
- photoluminescence quantum yield (in C1COCCO1): 0.969
- photoluminescence quantum yield (in CC#N): 0.025
- photoluminescence quantum yield (in CC(C)=O): 0.223
- photoluminescence quantum yield (in CCOC(C)=O): 0.801
- photoluminescence quantum yield (in CN(C)C=O): 0.651
- photoluminescence quantum yield (in CS(C)=O): 0.622
- photoluminescence quantum yield (in ClCCl): 0.005

Compound: Cc1ccc2c(c1)C(C)(C)c1cc(C)ccc1N2c1ccc2c(c1)C(C)(C)c1cc(N3c4ccc(C)cc4C(C)(C)c4cc(C)ccc43)ccc1S2(=O)=O
- photoluminescence quantum yield (in O=P(c1ccccc1)(c1ccccc1)c1ccccc1Oc1ccccc1P(=O)(c1ccccc1)c1ccccc1): 0.73

Compound: CCOC(=O)COc1ccc(/C=C/C2=C3c4ccccc4C(c4[nH]c(C)cc4C)=[N+]3[B-](F)(F)n3c(C)cc(C)c32)cc1
- photoluminescence quantum yield (in C1CCOC1): 0.012
- photoluminescence quantum yield (in CC#N): 0.005
- photoluminescence quantum yield (in CCCCCC): 0.013
- photoluminescence quantum yield (in CO): 0.002
- photoluminescence quantum yield (in Cc1ccccc1): 0.012
- photoluminescence quantum yield (in ClCCl): 0.014
